{"source": "patent US6566409B1", "about": "“Lock and key micelles” (University of South Florida, priority 1994, dated 2003)", "assay": "Solubility of barbituric acid in CD3CN, free and with bisamidopyridine dendrimers", "type": "physicochemical", "text": "Chemical shift changers for the complexed NH moieties, even in this competing solvent, corresponded to ca. 0.1 ppm for both generation dendrimers.", "data": [{"smiles": "O=C1CC(=O)NC(=O)N1", "note": "[barbituric acid]", "values": [{"measurement": "solubility in CD3CN", "setting": "free", "value": "sparingly soluble"}, {"measurement": "solubility in CD3CN in the presence of the bisamidopyridine dendrimers", "setting": "with bisamidopyridine dendrimers", "value": "freely soluble to the limit of complementary complexation"}]}]}
